# Where “and” joins values, the source holds several entries; their conditions need not be identical. Equal entries are not always repeated. Where two headings read alike, the source gives them in different places.
# Tests used:
# HCT116 [1] = assay: Cell cycle analysis, propidium iodide staining, flow cytometry; type: cell-based, human; conditions: for Cell cycle ratio, sub G0/G1 ratio (index for apoptosis): 48 hours (control 0.1); for Cell cycle ratio, S phase ratio: 48 hours (control 33.7)
# Description: (§1) Human colon cancer cell lines HCT116 and DLD-1 were inoculated in 60×15 cm culture dishes at the concentration of 5×10^5 cells per dish, followed by culture for 24 hours. Daurinol dissolved in DMSO (Dimethyl Sulfoxide) was treated thereto at the concentrations of 5-20 μM for 24, 48 and 72 hours, respectively. The cells were harvested and washed with DPBS (Dulbecco's Phosphate Buffered Saline), followed by fixation in 70% ethanol at −20° C. for more than one day. The cells were washed again with DPBS and stained with propidium iodide for 20 minutes, and then were analyzed by flow cytometry. The propidium iodide selectively stains intracellular DNA. So, the fluorescence by propidium iodide and cell numbers was used as variants to make a graph, showing the pattern of cell cycle. According to this graph, cell cycle blocking activity of daurinol and apoptosis induced by daurinol could be confirmed.
# DLD-1 [2] = assay: as above; type: cell-based, human; conditions: for Cell cycle ratio, sub G0/G1 ratio (index for apoptosis): 48 hours (control 0); for Cell cycle ratio, S phase ratio: 48 hours (control 29.6)
# Description: as §1
# HCT116 cells [3] = assay: Apoptosis by annexin V-FITC / propidium iodide co-staining, flow cytometry; type: cell-based, human; conditions: HCT116, 5 μM daurinol, 24 and 48 hours (FIGS. 7 and 8)
# Description: The induction of apoptosis by daurinol obtained by the method of Example 2 was thoroughly examined by co-staining with annexin V—FITC (fluorescein isothiocyanate) and propidium iodide.
# In normal cells, phosphatidylserine, one of the cell membrane forming phospholipids, is always heading toward inside of the cell. When early apoptosis is induced, this phosphatidylserine is exposed outside of the cell. Thus, the apoptotic cells can be detected by using green fluorescence labeled annexin V that is selectively bound to phosphatidylserine.
# HCT116 cells were inoculated in 60×15 cm culture dishes at the concentration of 5×10^5 cells per dish, followed by culture for 24 hours. Daurinol dissolved in DMSO (Dimethyl Sulfoxide) was treated thereto at the concentrations of 5 μM for 24 and 48 hours. The cells were harvested and washed with DPBS (Dulbecco's Phosphate Buffered Saline). 1×10^6 cells were stained with annexin V-FITC (fluorescein isothiocyanate) and propidium iodide for 15 minutes, and then were analyzed by flow cytometry.
# HCT116 [4] = assay: MTT cancer cell growth inhibition by daurinol; type: cell-based; conditions: Homo sapiens, HCT-116, read-out: IC50 (concentration for 50% of cell growth inhibition)
# Description: (§2) Daurinol obtained by the method of Example 2 was treated to human colon cancer cell lines HCT116 (American type of cell culture, ATCC) and DLD-1 (American type of cell culture, ATCC) to investigate the cancer cell growth inhibitory effect. The cell lines were cultured in MEM supplemented with 10% fetal bovine serum and antibiotics (penicillin and streptomycin) in a 37° C., 5% CO2 incubator. Sub-culture was performed every 2-3 days.
# (§3) HCT116 and DLD-1 were inoculated in a 96-well plate at the concentration of 5×10^3 cells/well, followed by culture for 24 hours. Daurinol dissolved in DMSO (Dimethyl Sulfoxide) was treated thereto at different concentrations of 0.1-200 μg/ml for 24 and 48 hours. MTT reagent (methylthiazol-2-yl-2.5 diphenyl tetrazolium bromide) was treated thereto. 1-3 hours later, OD450 was measured to investigate cell growth.
# DLD-1 [5] = assay: MTT cancer cell growth inhibition by daurinol; type: cell-based; conditions: Homo sapiens, read-out: IC50 (concentration for 50% of cell growth inhibition)
# Description: as §2, §3
# HCT116 cells [6] = assay: Morphological changes under DIC light microscope; type: cell-based, human; conditions: HCT116, 5 μM daurinol
# Description: Daurinol obtained by the method of Example 2 was treated to cancer cells and then morphological changes of the cancer cells were observed under DIC (differential interference contrast) light microscope.
# HCT116 cells were inoculated in 60×15 cm culture dishes at the concentration of 5×10^5 cells per dish, followed by culture for 24 hours. 5 μM of daurinol dissolved in DMSO (Dimethyl Sulfoxide) was treated thereto, followed by culture for 12, 24, 48, 72 and 96 hours respectively. Morphological changes of the cells were observed under DIC light microscope.
smiles,measurement,setting,value
COc1cc2c(-c3ccc4c(c3)OCO4)c3c(cc2cc1O)COC3=O [daurinol],S phase of cell cycle versus untreated control,"HCT116 [1]; HCT116, 5 μM daurinol, 24, 48 and 72 hours (FIG. 5)",significantly increased
same,"Cell cycle ratio, sub G0/G1 ratio (index for apoptosis)","HCT116 [1]; HCT116, 5 μM daurinol",3.8%
same,"Cell cycle ratio, S phase ratio","HCT116 [1]; HCT116, 5 μM daurinol",52.8%
same,"sub G0/G1 ratio, the index for apoptosis","HCT116 [1]; HCT116, 5 μM daurinol, different treatment times (FIG. 6)",significantly increased
same,"Cell cycle ratio, sub G0/G1 ratio (index for apoptosis)","HCT116 [1]; HCT116, 10 μM daurinol",4.6%
same,"Cell cycle ratio, S phase ratio","HCT116 [1]; HCT116, 10 μM daurinol",61.1%
same,"Cell cycle ratio, sub G0/G1 ratio (index for apoptosis)","HCT116 [1]; HCT116, 20 μM daurinol",9.4%
same,"Cell cycle ratio, S phase ratio","HCT116 [1]; HCT116, 20 μM daurinol",60.8%
same,"Cell cycle ratio, sub G0/G1 ratio (index for apoptosis)","DLD-1 [2]; DLD-1, 5 μM daurinol",0.3%
same,"Cell cycle ratio, S phase ratio","DLD-1 [2]; DLD-1, 5 μM daurinol",68.6%
same,"Cell cycle ratio, sub G0/G1 ratio (index for apoptosis)","DLD-1 [2]; DLD-1, 10 μM daurinol",0.6%
same,"Cell cycle ratio, S phase ratio","DLD-1 [2]; DLD-1, 10 μM daurinol",64.1%
same,"Cell cycle ratio, sub G0/G1 ratio (index for apoptosis)","DLD-1 [2]; DLD-1, 20 μM daurinol",1.4%
same,"Cell cycle ratio, S phase ratio","DLD-1 [2]; DLD-1, 20 μM daurinol",68.0%
same,Apoptosis (annexin V-FITC positive cells) versus control,HCT116 cells [3],significantly induced
same,IC50,"HCT116 [4]; HCT116, 24 hours treatment",4.4 µg/mL and 12.4 µM
same,IC50,"HCT116 [4]; HCT116, 48 hours treatment",0.7 µg/mL and 2.07 µM
same,IC50,"DLD-1 [5]; DLD-1, 24 hours treatment",10.5 µg/mL and 30 µM
same,IC50,"DLD-1 [5]; DLD-1, 48 hours treatment",1.4 µg/mL and 4.08 µM
same,Morphological changes of the cells,HCT116 cells [6]; after 24 hours (FIG. 9),the boundary of the cells became obvious
same,Morphological changes of the cells,HCT116 cells [6]; after 48 hours (FIG. 9),started to detach from the bottom of culture dish

# From patent US8227512B2, “Pharmaceutical composition containing daurinol for the prevention and treatment of cancers” (Korea Institute of Science and Technology, priority 2007, dated 2012)
